Experimental data as given in patent EP2114888B1, “TRICYCLIC COMPOUNDS AND THEIR USE AS GLUCOCORTICOID RECEPTOR MODULATORS” (priority 2007, dated 2008).

Experiments:
in vivo = settings: rat, po
IL-6 = assay: IL-1β-stimulated IL-6 production in A549 lung epithelial cells; format: cell-based, Human; settings: Homo sapiens, A549
Experimental: Human A549 lung epithelial cells (American Type Culture Collection, Rockville, MD) were cultured in Kaighn's F-12K medium with penicillin-streptomycin (10 U/mL) and 10% heat-inactivated fetal bovine serum (all from Invitrogen, Grand Island, NY). A549 cells were plated at a density of 30,000 cells/well in 96-well plates and incubated overnight at 37°C and with 5% CO2. The cells were serum-starved by replacing the growth medium with serum-free Kaighn's F-12K medium with penicillin-streptomycin (10 U/mL) and, again, incubating overnight at 37°C and with 5% CO2. On the third day, the medium was replaced with fresh serum-free medium and the cells were incubated with or without compound (vehicle was DMSO at 0.1 % maximum concentration) for approximately 1 hour and then stimulated with 1 ng/mL recombinant human IL-1β (R&D Systems, Minneapolis, MN) for 20 hours at 37°C and with 5% CO2. Cell supernatants were collected for determination of IL-6 levels using MSD (Meso Scale Discovery, Gaithersburg, MD) 96-well Single Spot plates as per the manufacturer's instructions. Plates were read with an MSD Sector Imager 6000. […] Percent inhibition for each compound concentration, relative to these controls, was calculated using Excel (Microsoft, Redmond, WA). IC50 values were generated using GraFit 5.0 data analysis software (Erithacus Software Ltd., Surrey, UK).

[1] = system: Mouse Collagen-induced arthritis (mCIA); assay: Therapeutic mouse collagen-induced arthritis (mCIA) model; format: in vivo, Male DBA/J mice
From the text: Mouse Collagen-induced arthritis is a commonly used chronic, preclinical model of rheumatoid arthritis in which joint swelling and bone destruction occur following immunization with type II collagen. Reduction of disease incidence and severity has been shown previously to be predictive of disease-modification and signs and symptoms mitigation, respectively, in a clinical setting. In the therapeutic mCIA model, induction of disease incidence and severity was synchronized via LPS stimulation. Male DBA/J mice were immunized with 100 ug of bovine type II collagen (bCII) on day 0. […] Dosing of compounds was initiated in the therapeutic mode on day 34 and continued through day 49. Different treatments were compared by measuring the decrease in incidence (i.e., resolution of disease) and the decrease in severity of paw swelling over time.

[2] = Caco-2 cell monolayer A→B permeability assay; settings: human
From the text: The Caco-2 cell monolayer is an in vitro tissue culture model of the intestinal epithelium. These cells are of human colonic origin and become polarized, fully differentiated enterocytes in 2-3 weeks. Once differentiated, these cells have tight junctions and express various biochemical processes such as active efflux transporters including P-glycoprotein (P-gp). With this model, it is possible to determine the apparent permeability (Papp) of a compound across the polarized Caco-2 cell monolayer.
An A→B Assay is performed with Caco-2 cell monolayers to determine compound Papp from A chamber to B chamber. This Papp is representative of luminal (gut) to serosal (blood) compound transport across intestinal epithelium that may be seen during intestinal absorption.

TNFα = assay: Ex vivo LPS-stimulated human whole blood, TNFα production; format: cell-based; settings: mean values
Experimental: Venous blood from human donors was collected as 10 ml aliquots in tubes containing sodium heparin (BD Vacutainer from Becton Dickinson and Company, Franklin Lakes, NY). Blood was added to sterile polystyrene round bottom 96-well tissue culture plates (Corning Costar) at 100 µl/well, omitting the outside wells. Media (RPMI Medium 1640 with L-glutamine, Invitrogen Corporation, Carlsbad, CA) was added to the blood in 90 µl aliquots for a total volume of 190 µl. Outside wells were filled with 200 µl of media. Blood was placed in a humidified 37°C incubator with 5% CO2 while compounds were prepared (nearly 60 minutes).
Compounds were prepared from 10 mM stock solutions in dimethylsulfoxide (DMSO, Sigma-Aldrich). […] Final DMSO and ethanol concentrations in the assay were 0.1 % and 1.5%. The samples were gently triturated twice to mix and replaced in the incubator. LPS stock (E. coli serotype 0111:B4, Sigma-Aldrich), stored in aliquots of 100 µg/ml in RPMI at -20°C, was diluted 1/50 in RPMI to make a working stock solution. After 60 minutes of incubation, 10 µl of the prepared LPS working stock was added to the blood to a final concentration of 100 ng/ml, omitting wells to be used as negative control. The samples were again gently triturated and the plates incubated overnight for 22 hours. Following incubation, the blood was centrifuged at 1500 x g for 5 minutes and the plasma removed to either freeze at -20°C or assay for cytokine release.
IL-1β, IFNγ,IL-6, and TNFα protein levels were measured using Meso Scale assay kits (Meso Scale Discovery, Gaithersburg, MD). Reagents were allowed to come to room temperature. Meso Scale plates were blocked with 30 µl of human plasma/serum assay diluent with gentle shaking for 60 minutes at room temperature. Plates were washed 3x with wash buffer (PBS, Invitrogen Corporation, with 0.05% Tween-20, Sigma-Aldrich). Calibrators for standard curves were prepared in human plasma/serum assay diluent as a 1/5 serial dilution to achieve final concentrations ranging from 50000 pg/ml to 3.2 pg/ml. Samples and calibrators were added at 20 µl/well, then incubated at room temperature with gentle shaking for 90 minutes. Plates were again washed 3 times with wash buffer. Detection antibody was diluted in human plasma/serum antibody diluent to 1 µg/ml and added to the plate at 20 µl/well. Plates were incubated as before for 60 minutes and washed again. Read Buffer T (4x) was diluted 1:1 with mqH2O to 2 times concentration and 150 µl added to each well. Plates were analyzed on the SECTOR Imager 6000 (Meso Scale Discovery) to generate raw signal values.
Individual values were compared to positive and negative controls (vehicle treated blood with LPS and vehicle treated blood without LPS, respectively) to generate % inhibition. Triplicate values were averaged for each donor. The values for two donors were averaged (only one donor was used for IL-1β) and graphed using 4-parameter fit curves in the GraFit 5.0.11 application.

[3] = Oral absorption profile in rats
[4] = system: house dust mite-induced BAL inflammatory cell influx; assay: House dust mite model of asthma; format: in vivo, Mice; settings: p.o., b.i.d., BAL fluid

## Cc1ncccc1NC(=O)c1ccc2c(c1)CC[C@@H]1C[C@@](O)(C(F)(F)F)CC[C@@]21Cc1ccccc1 [Example 1, (4βS,7R,8αR)-4β-benzyl-7-hydroxy-N-(2-methylpyridin-3-yl)-7-(trifluoromethyl)-4β,5,6,7,8,8α,9,10-octahydrophenanthrene-2-carboxamide]
In vivo
  AUC: 460 ng·h/mL
IL-6
  inhibition: 86.1%
[1]; Mus musculus, dosing day 34 through day 49, read-out: Therapeutic mCIA (ED80 dose)
  ED80: 1.5 mg/kg
[1]; dosing day 34 through day 49, listed as Example 1 free base
  Therapeutic mCIA (ED50 dose): 0.4 mg/kg
[1]; mice
  Disease severity (therapeutic mCIA) EAUC50 (AUC 0-4 hr): 0.09 µg·h/mL
  Disease severity (therapeutic mCIA) EAUC80 (AUC 0-4 hr): 0.19 µg·h/mL
[2]
  Papp A→B: 37.5 ×10⁻⁶ cm/s
TNFα; 0.457247 nM
  inhibition at 0.000457247 µM: 8.96%
TNFα; 1.371742 nM
  inhibition at 0.00137174 µM: 7.87%
TNFα; 4.115226 nM
  inhibition at 0.00411523 µM: -1.31%
TNFα; 12.34568 nM
  inhibition at 0.0123457 µM: 9.42%
TNFα; 37.03704 nM
  inhibition at 0.037037 µM: 18.7%
TNFα; 111.1111 nM
  inhibition at 0.111111 µM: 27.4%
TNFα; 333.3333 nM
  inhibition at 0.333333 µM: 36%
TNFα; 1000 nM
  inhibition at 1 µM: 38.1%
[3]
  bioavailability F: 17%
[3]; oral
  Cmax: 130 ng/mL
[4]; 0.1 mg/kg
  Eosinophils (% inhibition): 42%
  Lymphocytes (% inhibition): 34%
  Neutrophils (% inhibition): 29%
  T-cells (% inhibition): 39%
  Total cells (% inhibition): 22%
[4]; 1 mg/kg
  Eosinophils (% inhibition): 97%
  Lymphocytes (% inhibition): 94%
  Neutrophils (% inhibition): 97%
  T-cells (% inhibition): 88%
  Total cells (% inhibition): 72%
[4]; 10 mg/kg
  Eosinophils (% inhibition): 99%
  Lymphocytes (% inhibition): 97%
  Neutrophils (% inhibition): 100%
  T-cells (% inhibition): 96%
  Total cells (% inhibition): 83%
